Measured values: patent publication US20250154154A1 (Relay Binney Street, 2nd Floor, priority 2020, published 2025)

These compounds were tested against SRC (Homo sapiens, UniProt P12931) (assay: SRC Biochemical Assay Protocol (microfluidic mobility shift assay, FLPeptide4 substrate)).
Protocol: SRC Biochemical Assay Protocol
Src biochemical kinase activity was measured using a surrogate fluorescent peptide substrate [FLPeptide4; 5-FAM-EGIYGVLFKKK-CONH2 (PerkinElmer Cat. No. 760348)] with a microfluidic mobility shift assay. Reactions were performed in 384-well flat bottom polystyrene microplates (Corning Cat. No. 3570) at a final volume of 20 μL in 50 mM HEPES pH 7.4, 1 mM EGTA, 10 mM MgCl2, 0.01% Brij-35, 2 mM DTT, 0.05% BSA, 1% DMSO. Inhibition experiments were performed with compounds of the invention varying from 0.0017-100 μM with 0.26 nM SRC, 1.5 μM FLPeptide4, and 50 μM ATP. Specifically, 15 μl 1.3× mixtures of SRC+FLPeptide4+compounds were preincubated for 30 minutes at room temperature followed by addition of 5 μL 4×ATP. Reactions were carried out for 90 minutes then quenched with 40 μl 500 mM EDTA. Phosphorylated peptide product was measured with a mobility shift assay using a LabChip® EZ Reader system (PerkinElmer Cat. No. 122919). Inhibition ratios were calculated relative to neutral controls and IC50 values were obtained from dose response data fitted to a 4-parameter logistic model.

| Compound | IC50 |
| --- | --- |
| 1-(4-(3-((4-amino- 7-isopropyl-5-(3- methoxy-4-(6- methylpyridin-2- yloxy)phenyl)-7H- pyrrolo[2,3- d]pyrimidin-6- yl)ethynyl)azetidin- 1-yl)piperidin-1- yl)prop-2-en-1-one [II-306] | 0.01 to 1 µM |
| C=CC(=O)N1CCC(N2CC(C#Cc3c(-c4ccc(Oc5ccccc5)cc4)c4c(N)ncnc4n3C)C2)C[C@@H]1CO (some centres unmarked) [III-67] | 0.01 to 1 µM |
| C=CC(=O)N1CC(C#Cc2c(-c3ccc(Oc4ccccc4)cc3)c3c(N)ncnc3n2C(C)C)C1 [Example I-3] | ≤ 0.01 µM |
| C=CC(=O)N1CCC(N2CC(C#Cc3c(-c4ccc(Oc5nnc(C)o5)c(OC)c4)c4c(N)ncnc4n3C)C2)CC1 [III-89] | 0.01 to 1 µM |
| C=CC(=O)N1CCC(N2CC(C#Cc3c(-c4ccc(Oc5ccccc5)cc4)c4c(N)ncnc4n3C)C2)C[C@@H]1C (some centres unmarked) [III-47] | 0.01 to 1 µM |
| C=CC(=O)N1CC(N2CCC(C#Cc3c(-c4ccc(Oc5ccccn5)cc4)c4c(N)ncnc4n3C(C)C)CC2)C1 [Example I-47] | 0.01 to 1 µM |
| C=CC(=O)N1CCC(N2CCC(C#Cc3c(-c4ccc(Oc5ccccc5)cc4)c4c(N)ncnc4n3C)C2)CC1 (centres unmarked) [III-73] | 0.01 to 1 µM |
| CC(C)n1c(C#CC2CCN(C3CNC3)CC2)c(-c2ccc(Oc3ccccc3)cc2)c2c(N)ncnc21 [II-153, 6-((1-(azetidin-3-yl)piperidin-4-yl)ethynyl)-7-isopropyl-5-(4-phenoxyphenyl)-7H-pyrrolo[2,3-d]pyrimidin-4-amine] | ≤ 0.01 µM |
| C=CC(=O)N1CCC(N2CC(N)(C#Cc3c(-c4ccc(Oc5cccc(C)n5)c(OC)c4)c4c(N)ncnc4n3C)C2)CC1 [III-93] | 1 to 10 µM |
| CC(C)n1c(C#CC2CCOCC2)c(-c2ccc(Oc3ccccc3)cc2)c2c(N)ncnc21 [III-8] | 0.01 to 1 µM |
| C=CC(=O)N1CCC(N2CC(O)(C#Cc3c(-c4ccc(Oc5ccccc5)cc4)c4c(N)ncnc4n3C)C2)CC1 [III-23] | 0.01 to 1 µM |
| C=CC(=O)N1CCC(C#Cc2c(-c3ccc(Oc4cccnc4)cc3)c3c(N)ncnc3n2C(C)C)CC1 [Example I-11] | 0.01 to 1 µM |
| C=CC(=O)N1CCC(O)(C#Cc2c(-c3ccc(Oc4ccccc4)cc3)c3c(N)ncnc3n2C)C1 (centres unmarked) [III-13] | ≤ 0.01 µM |
| C=CC(=O)N1CCC(N2CC(C#Cc3c(-c4ccc(Oc5ccccc5)cc4F)c4c(N)ncnc4n3C)C2)CC1 [III-82] | 0.01 to 1 µM |
| C=CC(=O)N1CC[C@H](N2CC(C#Cc3c(-c4ccc(Oc5ccccc5)cc4)c4c(N)ncnc4n3C)C2)[C@@H](C)C1 [III-69] | 0.01 to 1 µM |
| C=CC(=O)N1CCC(C#Cc2c(-c3ccc(Oc4ccccc4)nc3)c3c(N)ncnc3n2C(C)C)CC1 [Example I-10] | 0.01 to 1 µM |
| C=CC(=O)N1CCC(N2CC(C#Cc3c(-c4ccc(Oc5ccccc5)cc4)c4c(N)ncnc4n3C(C)CO)C2)CC1 (centres unmarked) [III-60] | 0.01 to 1 µM |
| C=CC(=O)N1CCC(N2CC(C#Cc3c(-c4ccc(Oc5ccccc5)cc4)c4c(N)ncnc4n3[C@@H]3CCOC3)C2)CC1 [III-55] | ≤ 0.01 µM |
| CN(C)C/C=C/C(=O)N1CCC(C#Cc2c(-c3ccc(Oc4ccccc4)cc3)c3c(N)ncnc3n2C2CCOC2)CC1 (centres unmarked) [III-10] | 0.01 to 1 µM |

| Compound | IC50 |
| --- | --- |
| CCC(=O)N1CC(N2CCC(C#Cc3c(-c4ccc(Oc5ccccc5)cc4)c4c(N)ncnc4n3C(C)C)CC2)C1 [II-158, 1-(3-(4-((4-amino-7-isopropyl-5-(4-phenoxyphenyl)-7H-pyrrolo[2,3-d]pyrimidin-6-yl)ethynyl)piperidin-1-yl)azetidin-1-yl)propan-1-one] | 0.01 to 1 µM |
| CCC(=O)N1CCC(C#Cc2c(-c3ccc(Oc4ccccc4)cc3)c3c(N)ncnc3n2C2CCOC2)CC1 (centres unmarked) [II-156, 1-(4-((4-amino-5-(4-phenoxyphenyl)-7-(tetrahydrofuran-3-yl)-7H-pyrrolo[2,3-d]pyrimidin-6-yl)ethynyl)piperidin-1-yl)propan-1-one] | 0.01 to 1 µM |
| COc1cc(-c2c(C#CC3CN(C)C3)n(C)c3ncnc(N)c23)ccc1Oc1cccc(C)n1 [III-86] | 0.01 to 1 µM |
| C=CC(=O)N[C@@H](C)C(=O)N1CCC(C#Cc2c(-c3ccc(Oc4ccccc4)cc3)c3c(N)ncnc3n2C)CC1 [III-45] | ≤ 0.01 µM |
| C=CC(=O)N1CCC(C#Cc2c(-c3ccc(Oc4ccccc4)cc3)c3c(N)ncnc3n2C2CCOC2)C1 (centres unmarked) [III-21] | 0.01 to 1 µM |
| CC(C)n1c(C#CC2CCC(NC(=O)CCl)CC2)c(-c2ccc(Oc3ccccc3)cc2)c2c(N)ncnc21 (centres unmarked) [Example I-38] | 0.01 to 1 µM |
| C=CC(=O)N1CCC(C#Cc2c(-c3ccc(Oc4ccccc4)cc3)c3c(N)ncnc3n2C)C1 (centres unmarked) [III-11] | 0.01 to 1 µM |
| COC(=O)C(C)N1CCC(C#Cc2c(-c3ccc(Oc4ccccc4)cc3)c3c(N)ncnc3n2C(C)C)CC1 (centres unmarked) [II-148, methyl 2-(4-((4-amino-7-isopropyl-5-(4-phenoxyphenyl)-7H-pyrrolo[2,3-d]pyrimidin-6-yl)ethynyl)piperidin-1-yl)propanoate] | 0.01 to 1 µM |
| C=CC(=O)N1CCC(N2CC(C#Cc3c(-c4ccc(Oc5ccccc5)c(C#N)c4)c4c(N)ncnc4n3C)C2)CC1 [III-74] | > 10 µM |
| Cn1c(C#CC2(O)CCN(C(=O)/C=C/CN3CCC3)CC2)c(-c2ccc(Oc3ccccc3)cc2)c2c(N)ncnc21 [III-50] | 0.01 to 1 µM |
| Cn1c(C#CC2CN(C(=O)/C=C/CN3CCOCC3)C2)c(-c2ccc(Oc3ccccc3)cc2)c2c(N)ncnc21 [III-61] | 0.01 to 1 µM |
| C=CC(=O)N1CCC(N2CC(C#Cc3c(-c4ccc(Oc5ccccc5)cc4OC)c4c(N)ncnc4n3C)C2)CC1 [III-80] | 0.01 to 1 µM |
| CC(C)n1c(C#CC2(O)CCN(C(=O)/C=C/CN(C)C)CC2)c(-c2ccc(Oc3ccccc3)cc2)c2c(N)ncnc21 [III-24] | ≤ 0.01 µM |
| C=CC(=O)N1CCC(C#Cc2c(-c3ccc(Oc4ncccn4)cc3)c3c(N)ncnc3n2C(C)C)CC1 [Example I-15] | 0.01 to 1 µM |
| C=CC(=O)N1CCC(C#Cc2c(-c3ccc(Oc4ccccc4C#N)cc3)c3c(N)ncnc3n2C(C)C)CC1 [Example I-31] | 0.01 to 1 µM |
| C=CC(=O)N1CCC(C#Cc2c(-c3ccc(Oc4ccccc4)cc3)c3c(N)ncnc3n2CCCCN(C)C)C1 (centres unmarked) [III-20] | 0.01 to 1 µM |
| CC(C(N)=O)N1CCC(C#Cc2c(-c3ccc(Oc4ccccc4)cc3)c3c(N)ncnc3n2C(C)C)CC1 (centres unmarked) [II-150, 2-(4-((4-amino-7-isopropyl-5-(4-phenoxyphenyl)-7H-pyrrolo[2,3-d]pyrimidin-6-yl)ethynyl)piperidin-1-yl)propanamide] | 0.01 to 1 µM |
| C=CC(=O)N1CCC(N2CC(C#Cc3c(-c4ccc(Oc5cccc(C)n5)c(OC)c4)c4c(N)ncnc4n3CC)C2)CC1 [II-121] | 0.01 to 1 µM |
| N-[(1r,4r)-4-[2-[4- amino-7-(2- hydroxyethyl)-5- [3-methoxy-4-[(6- methylpyridin-2- yl)oxy]phenyl]- 7H-pyrrolo[2,3- d]pyrimidin-6- yllethynyl] cyclohexyl] prop-2- enamide [II-311] | ≤ 0.01 µM |

| Compound | IC50 |
| --- | --- |
| C=CC(=O)N1C[C@@H]2[C@@H](C#Cc3c(-c4ccc(Oc5ccccc5)c5c4OCO5)c4c(N)ncnc4n3C)[C@@H]2C1 [III-88] | ≤ 0.01 µM |
| C=CC(=O)N1CCC(C#Cc2c(-c3ccc(Oc4ccccn4)cc3)c3c(N)ncnc3n2C(C)C)CC1 [Example I-12] | 0.01 to 1 µM |
| C=CC(=O)N[C@H]1CC[C@@H](C#Cc2c(-c3ccc(Oc4ccccc4)cc3)c3c(N)ncnc3n2C)CC1 [III-57] | 0.01 to 1 µM |
| C=CC(=O)N[C@H]1CC[C@H](C#Cc2c(-c3ccc(Oc4cccc(C)n4)c(OC)c3)c3c(N)ncnc3n2C)CC1 [III-4] | 0.01 to 1 µM |
| C=CC(=O)N[C@H]1CC[C@H](C#Cc2c(-c3ccc(Oc4ccccc4)cc3)c3c(N)ncnc3n2C)CC1 [III-58] | 0.01 to 1 µM |
| C=CC(=O)N1CCC(N2CC(C#Cc3c(-c4ccc(Oc5cccc(C)n5)c(OC)c4)c4c(N)ncnc4n3C3CCOC3)C2)CC1 (centres unmarked) [II-125] | 0.01 to 1 µM |
| C=C(C)C(=O)N1CCC(N2CC(C#Cc3c(-c4ccc(Oc5ccccc5)cc4)c4c(N)ncnc4n3C)C2)CC1 [III-38] | 0.01 to 1 µM |
| CC(C)n1c(C#CC2CCNC2)c(-c2ccc(Oc3ccccc3)cc2)c2c(N)ncnc21 (centres unmarked) [II-157, 7-isopropyl-5-(4-phenoxyphenyl)-6-(pyrrolidin-3-ylethynyl)-7H-pyrrolo[2,3-d]pyrimidin-4-amine] | ≤ 0.01 µM |
| Nc1ncnc2c1c(-c1ccc(Oc3ccccc3)cc1)c(C#CC1CCN(C(=O)/C=C/CN3CCOCC3)CC1)n2[C@H]1CCOC1 [III-36] | 0.01 to 1 µM |
| C=CC(=O)N[C@H](C)C(=O)N1CCC(C#Cc2c(-c3ccc(Oc4ccccc4)cc3)c3c(N)ncnc3n2C2CCOC2)CC1 (some centres unmarked) [III-76] | ≤ 0.01 µM |
| C=CC(=O)N1CCC(N2CC(C#Cc3c(-c4ccc(Oc5ccccc5)cc4)c4c(N)ncnc4n3C)C2)CC1 [III-25] | 0.01 to 1 µM |
| Cn1c(C#CC2CCN(C(=O)/C=C/CN3CCOCC3)CC2)c(-c2ccc(Oc3ccccc3)cc2)c2c(N)ncnc21 [III-41] | 0.01 to 1 µM |
| C=CC(=O)N1CCC(C#Cc2c(-c3ccc(Nc4cccc(C)n4)cc3)c3c(N)ncnc3n2C(C)C)CC1 [Example I-22] | 0.01 to 1 µM |
| C=CC(=O)N1CCC(C#Cc2c(-c3ccc(C(C#N)c4ccccc4)cc3)c3c(N)ncnc3n2C(C)C)CC1 (centres unmarked) [Example I-30] | 0.01 to 1 µM |
| C=C(C)C(=O)N1CCC(O)(C#Cc2c(-c3ccc(Oc4ccccc4)cc3)c3c(N)ncnc3n2C)CC1 [III-35] | 0.01 to 1 µM |
| C#Cc1c(-c2ccc(Oc3ccccc3)cc2)c2c(N)ncnc2n1C(C)C [III-6] | 0.01 to 1 µM |
| C=CS(=O)(=O)NC1CCC(C#Cc2c(-c3ccc(Oc4ccccc4)cc3)c3c(N)ncnc3n2C(C)C)CC1 (centres unmarked) [Example I-43] | ≤ 0.01 µM |
| C=CC(=O)N1CCC(N2CC(C#Cc3c(-c4ccc(Oc5ccccc5)c(C)c4)c4c(N)ncnc4n3C)C2)CC1 [III-83] | 0.01 to 1 µM |
